Test system: MDA-MB-436 breast cancer cell line
Experiment: Cell viability assay (MDA-MB-436)
Format: cell-based
Details: Homo sapiens, 144 h; MDA-MB-436 cells, treated 6 days
Method: 2. Cell Viability Assay (MDA-MB-436)
Cell viability assay was performed by using MDA-MB-436 cell line to measure cytotoxicity of compounds in the present invention. MDA-MB-436 breast cancer cell line was seeded into 96-well plates at 37° C. under 5% CO2 atmosphere using DMEM/F12 (Gibco) containing 10% FBS (Hyclone). After 24 hr incubation, cells were treated with the invented compounds at various concentrations for 6 days. The medium was changed every 3 day. 6 days later, A fluorescence reagent was used to determine the IC50 values.

Structure (SMILES)	IC50
O=C(c1cc(Cc2n[nH]c(=O)c3ccccc23)ccc1F)N1CC[C@H](Nc2ccc(Cl)nn2)C1 [Compound I-112, (S)-4-(3-(3-((6-chloropyridazin-3-yl)amino)pyrrolidine-1-carbonyl)-4-fluorobenzyl)phthalazin-1(2H)-one]	300 to 1000 nM
O=C(c1cc(Cc2n[nH]c(=O)c3ccccc23)ccc1F)N1CC[C@@H](NC2CC2)C1 [Compound I-29, (R)-4-(3-(3-(cyclopropylamino)pyrrolidine-1-carbonyl)-4-fluorobenzyl)phthalazin-1(2H)-one]	300 to 1000 nM
CN(Cc1cccnc1)C1CN(C(=O)c2cc(Cc3n[nH]c(=O)c4ccccc34)ccc2F)C1 [Compound I-66, 4-(4-fluoro-3-(3-(methyl(pyridin-3-ylmethyl)amino)azetidine-1-carbonyl)benzyl)phthalazin-1(2H)-one]	50 to 300 nM
CC(NC1CN(C(=O)c2cc(Cc3n[nH]c(=O)c4ccccc34)ccc2F)C1)C1(C)CC1 (stereo not shown) [Compound I-49, 4-(4-fluoro-3-(3-((1-(1-methylcyclopropyl)ethyl)amino)azetidine-1-carbonyl)benzyl)phthalazin-1(2H)-one]	5 to 50 nM
CN(C)[C@H]1CCN(C(=O)C2CN(C(=O)c3cc(Cc4n[nH]c(=O)c5ccccc45)ccc3F)C2)C1 [Compound I-24, (S)-4-(3-(3-(3-(dimethylamino)pyrrolidine-1-carbonyl)azetidine-1-carbonyl)-4-fluorobenzyl)phthalazin-1(2H)-one]	300 to 1000 nM
CC(C)CCNC1CN(C(=O)c2cc(Cc3n[nH]c(=O)c4ccccc34)ccc2F)C1 [Compound I-52, 4-(4-fluoro-3-(3-(isopentylamino)azetidine-1-carbonyl)benzyl)phthalazin-1(2H)-one]	≤ 5 nM
CC(C)(C)CNC1CN(C(=O)c2cc(Cc3n[nH]c(=O)c4ccccc34)ccc2F)C1 [Compound I-37, 4-(4-fluoro-3-(3-(neopentylamino)azetidine-1-carbonyl)benzyl)phthalazin-1(2H)-one]	5 to 50 nM
N#CC(NC1CN(C(=O)c2cc(Cc3n[nH]c(=O)c4ccccc34)ccc2F)C1)C1CC1 (stereo not shown) [Compound I-103, 2-cyclopropyl-2-((1-(2-fluoro-5-((4-oxo-3,4-dihydrophthalazin-1-yl)methyl)benzoyl)azetidin-3-yl)amino)acetonitrile]	300 to 1000 nM
CC(C)C(C#N)NC1CN(C(=O)c2cc(Cc3n[nH]c(=O)c4ccccc34)ccc2F)C1 (stereo not shown) [Compound I-102, 2-((1-(2-fluoro-5-((4-oxo-3,4-dihydrophthalazin-1-yl)methyl)benzoyl)azetidin-3-yl)amino)-3-methylbutanenitrile]	300 to 1000 nM
CN(C)C(=O)c1cccnc1N[C@@H]1CCN(C(=O)c2cc(Cc3n[nH]c(=O)c4ccccc34)ccc2F)C1 [Compound I-129, (R)-2-((1-(2-fluoro-5-((4-oxo-3,4-dihydrophthalazin-1-yl)methyl)benzoyl)pyrrolidin-3-yl)amino)-N,N-dimethylnicotinamide]	300 to 1000 nM
O=C(c1cc(Cc2n[nH]c(=O)c3ccccc23)ccc1F)N1CC(Nc2ccccc2)C1 [Compound I-79, 4-(4-fluoro-3-(3-(phenylamino)azetidine-1-carbonyl)benzyl)phthalazin-1(2H)-one]	50 to 300 nM
O=C(c1cc(Cc2n[nH]c(=O)c3ccccc23)ccc1F)N1CC(NCCC2CC2)C1 [Compound I-58, 4-(3-(3-((2-cyclopropylethyl)amino)azetidine-1-carbonyl)-4-fluorobenzyl)phthalazin-1(2H)-one]	5 to 50 nM
C#Cc1cnc(N[C@@H]2CCN(C(=O)c3cc(Cc4n[nH]c(=O)c5ccccc45)ccc3F)C2)nc1 [Compound I-125, (R)-4-(3-(3-((5-ethynylpyrimidin-2-yl)amino)pyrrolidine-1-carbonyl)-4-fluorobenzyl)phthalazin-1(2H)-one]	≤ 5 nM
CN(C1CCC1)C1CN(C(=O)c2cc(Cc3n[nH]c(=O)c4ccccc34)ccc2F)C1 [Compound I-71, 4-(3-(3-(cyclobutyl(methyl)amino)azetidine-1-carbonyl)-4-fluorobenzyl)phthalazin-1(2H)-one]	50 to 300 nM
O=C(c1cc(Cc2n[nH]c(=O)c3ccccc23)ccc1F)N1CC[C@@H](Nc2ccc(Cl)nn2)C1 [Compound I-118, (R)-4-(3-(3-((6-chloropyridazin-3-yl)amino)pyrrolidine-1-carbonyl)-4-fluorobenzyl)phthalazin-1(2H)-one]	300 to 1000 nM
C[C@H](NC1CN(C(=O)c2cc(Cc3n[nH]c(=O)c4ccccc34)ccc2F)C1)C(C)(C)C [Compound I-87, (S)-4-(3-(3-((3,3-dimethylbutan-2-yl)amino)azetidine-1-carbonyl)-4-fluorobenzyl)phthalazin-1(2H)-one]	300 to 1000 nM
CC1(NC2CN(C(=O)c3cc(Cc4n[nH]c(=O)c5ccccc45)ccc3F)C2)CC1 [Compound I-85, 4-(4-fluoro-3-(3-((1-methylcyclopropyl)amino)azetidine-1-carbonyl)benzyl)phthalazin-1(2H)-one]	≤ 5 nM

Structure (SMILES)	IC50
C#CCN(CC1CN(C(=O)c2cc(Cc3n[nH]c(=O)c4ccccc34)ccc2F)C1)C1CC1 [Compound I-153, 4-(3-(3-((cyclopropyl(prop-2-yn-1-yl)amino)methyl)azetidine-1-carbonyl)-4-fluorobenzyl)phthalazin-1(2H)-one]	300 to 1000 nM
C#CCNC1CN(C(=O)c2cc(Cc3n[nH]c(=O)c4ccccc34)ccc2F)C1 [Compound I-81, 4-(4-fluoro-3-(3-(prop-2-yn-1-ylamino)azetidine-1-carbonyl)benzyl)phthalazin-1(2H)-one]	50 to 300 nM
O=C(c1cc(Cc2n[nH]c(=O)c3ccccc23)ccc1F)N1CC(C(=O)N2CCC(F)(F)C2)C1 [Compound I-19, 4-(3-(3-(3,3-difluoropyrrolidine-1-carbonyl)azetidine-1-carbonyl)-4-fluorobenzyl)phthalazin-1(2H)-one]	50 to 300 nM
N#CC1(CNC2CN(C(=O)c3cc(Cc4n[nH]c(=O)c5ccccc45)ccc3F)C2)CC1 [Compound I-94, 1-(((1-(2-fluoro-5-((4-oxo-3,4-dihydrophthalazin-1-yl)methyl)benzoyl)azetidin-3-yl)amino)methyl)cyclopropanecarbonitrile]	300 to 1000 nM
O=C(c1cc(Cc2n[nH]c(=O)c3ccccc23)ccc1F)N1CC[C@@H](Nc2ccccn2)C1 [Compound I-128, (R)-4-(4-fluoro-3-(3-(pyridin-2-ylamino)pyrrolidine-1-carbonyl)benzyl)phthalazin-1(2H)-one]	5 to 50 nM
CCN(C1CC1)C1CN(C(=O)c2cc(Cc3n[nH]c(=O)c4ccccc34)ccc2F)C1 [Compound I-70, 4-(3-(3-(cyclopropyl(ethyl)amino)azetidine-1-carbonyl)-4-fluorobenzyl)phthalazin-1(2H)-one]	50 to 300 nM
O=C(c1cc(Cc2n[nH]c(=O)c3ccccc23)ccc1F)N1CC(NCC2CCCC2)C1 [Compound I-55, 4-(3-(3-((cyclopentylmethyl)amino)azetidine-1-carbonyl)-4-fluorobenzyl)phthalazin-1(2H)-one]	5 to 50 nM
O=C(c1cc(Cc2n[nH]c(=O)c3ccccc23)ccc1F)N1CC(NCCCC(F)(F)F)C1 [Compound I-56, 4-(4-fluoro-3-(3-((4,4,4-trifluorobutyl)amino)azetidine-1-carbonyl)benzyl)phthalazin-1(2H)-one]	300 to 1000 nM
CC(C)(CO)CNC1CN(C(=O)c2cc(Cc3n[nH]c(=O)c4ccccc34)ccc2F)C1 [Compound I-93, 4-(4-fluoro-3-(3-((3-hydroxy-2,2-dimethylpropyl)amino)azetidine-1-carbonyl)benzyl)phthalazin-1(2H)-one]	50 to 300 nM
C#CCCNC1CN(C(=O)c2cc(Cc3n[nH]c(=O)c4ccccc34)ccc2F)C1 [Compound I-91, 4-(3-(3-(but-3-yn-1-ylamino)azetidine-1-carbonyl)-4-fluorobenzyl)phthalazin-1(2H)-one]	50 to 300 nM
O=C(c1cc(Cc2n[nH]c(=O)c3ccccc23)ccc1F)N1CC(NCC(F)(F)F)C1 [Compound I-95, 4-(4-fluoro-3-(3-((2,2,2-trifluoroethyl)amino)azetidine-1-carbonyl)benzyl)phthalazin-1(2H)-one]	50 to 300 nM
O=C(c1cc(Cc2n[nH]c(=O)c3ccccc23)ccc1F)N1CC(N[C@@H]2CCNC2)C1 [Compound I-96, (R)-4-(4-fluoro-3-(3-(pyrrolidin-3-ylamino)azetidine-1-carbonyl)benzyl)phthalazin-1(2H)-one]	300 to 1000 nM
CC(CNC1CN(C(=O)c2cc(Cc3n[nH]c(=O)c4ccccc34)ccc2F)C1)C(F)(F)F (stereo not shown) [Compound I-50, 4-(4-fluoro-3-(3-((3,3,3-trifluoro-2-methylpropyl)amino)azetidine-1-carbonyl)benzyl)phthalazin-1(2H)-one]	50 to 300 nM
CN(c1ccc(Cl)nn1)C1CN(C(=O)c2cc(Cc3n[nH]c(=O)c4ccccc34)ccc2F)C1 [Compound I-115, 4-(3-(3-((6-chloropyridazin-3-yl)(methyl)amino)azetidine-1-carbonyl)-4-fluorobenzyl)phthalazin-1(2H)-one]	300 to 1000 nM
CN(C1CC1)C1CN(C(=O)c2cc(Cc3n[nH]c(=O)c4ccccc34)ccc2F)C1 [Compound I-69, 4-(3-(3-(cyclopropyl(methyl)amino)azetidine-1-carbonyl)-4-fluorobenzyl)phthalazin-1(2H)-one]	50 to 300 nM
O=C(c1cc(Cc2n[nH]c(=O)c3ccccc23)ccc1F)N1CC[C@@H](N2CCCCC2)C1 [Compound I-137, (R)-4-(4-fluoro-3-(3-(piperidin-1-yl)pyrrolidine-1-carbonyl)benzyl)phthalazin-1(2H)-one]	50 to 300 nM
O=C(c1cc(Cc2n[nH]c(=O)c3ccccc23)ccc1F)N1CC[C@@H](Nc2nccs2)C1 [Compound I-124, (R)-4-(4-fluoro-3-(3-(thiazol-2-ylamino)pyrrolidine-1-carbonyl)benzyl)phthalazin-1(2H)-one]	50 to 300 nM
